From ChEMBL document CHEMBL1938266, “A three-step protocol for lead optimization: quick identification of key conformational features and functional groups in the SAR studies of non-ATP competitive MK2 (MAPKAPK2) inhibitors” (Bioorg Med Chem Lett, 2012)

Legend:
[1] = molecular target: T1, MAP kinase-activated protein kinase 2 (Homo sapiens, UniProt P49137); experiment: Inhibition of human MK2
[2] = system: THP-1; experiment: Inhibition of LPS-stimulated TNFalpha production in human THP1 cells by ELISA; assay type: functional, cell-based
[3] = molecular target: T1, MAP kinase-activated protein kinase 2; experiment: Inhibition of MK2-mediated HSP27 phosphorylation by cell-based assay

T1 sequence (P49137 whole entry): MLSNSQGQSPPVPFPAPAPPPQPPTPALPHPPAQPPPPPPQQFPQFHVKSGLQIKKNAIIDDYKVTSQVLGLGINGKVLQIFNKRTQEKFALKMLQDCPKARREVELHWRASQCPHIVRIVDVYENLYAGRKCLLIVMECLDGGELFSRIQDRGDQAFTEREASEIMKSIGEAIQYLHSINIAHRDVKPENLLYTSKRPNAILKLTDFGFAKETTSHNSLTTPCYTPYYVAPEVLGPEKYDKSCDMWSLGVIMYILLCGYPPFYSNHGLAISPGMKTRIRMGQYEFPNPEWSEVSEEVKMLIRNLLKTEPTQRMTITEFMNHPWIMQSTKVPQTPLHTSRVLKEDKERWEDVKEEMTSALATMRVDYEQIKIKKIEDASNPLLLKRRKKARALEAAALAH

SMILES	IC50 ([1]; read-out: IC50) [nM]	EC50 [2] [nM]	EC50 [3] [nM]	IC50 [1]
Cc1cccc(C)c1-c1ccccc1CN(C(=O)c1ccc(-c2ccc(C#N)cc2)o1)c1ccc(N2CCNCC2)cc1	258	–	–	–
O=C(c1ccc(-c2ccc(Cl)cc2)o1)N(Cc1ccccn1)c1ccc(N2CCNCC2)cc1	110	5000	350	–
N#Cc1ccc(-c2ccc(C(=O)N(Cc3ccccn3)c3ccc(N4CCNCC4)cc3)o2)cc1	115	–	–	–
O=C(c1ccc(-c2ccc(Cl)cc2)o1)N(Cc1ccccn1)C1CCC(N2CCNCC2)CC1 (centres undefined)	4740	–	–	–
CN1CCN(CCCN(Cc2ccccn2)C(=O)c2ccc(-c3ccc(C#N)cc3)o2)CC1	10000	–	–	–
N#Cc1ccc(-c2ccc(C(=O)N(Cc3ccccn3)C3CCNCC3)o2)cc1	10000	–	–	–
Cc1cccc(CN(C(=O)c2ccc(-c3ccc(C#N)cc3)o2)c2ccc(N3CCNCC3)cc2)n1	79	–	–	–
Cc1cccc(CN(C(=O)c2ccc(-c3ccc(Cl)cc3)o2)c2cccc(N3CCNCC3)c2)n1	–	–	–	Not Active
Cc1cccc(CN(C(=O)c2ccc(-c3ccc(Cl)cc3)o2)c2ccccc2N2CCNCC2)n1	–	–	–	Not Active
N#Cc1ccc(-c2ccc(C(=O)N(Cc3ccc(-c4ccccc4)cc3)c3ccc(N4CCNCC4)cc3)o2)cc1	41	6690	–	–
N#Cc1ccc(-c2ccc(C(=O)N(Cc3cccc(-c4ccccc4)c3)c3ccc(N4CCNCC4)cc3)o2)cc1	70	28100	–	–
N#Cc1ccc(-c2ccc(C(=O)N(Cc3ccccc3-c3ccccc3)c3ccc(N4CCNCC4)cc3)o2)cc1	9	3460	–	–
N#Cc1ccc(-c2ccc(C(=O)N(Cc3ccc(-c4ccccc4F)cc3)c3ccc(N4CCNCC4)cc3)o2)cc1	1920	–	–	–
N#Cc1ccc(-c2ccc(C(=O)N(Cc3cccc(-c4ccccc4F)c3)c3ccc(N4CCNCC4)cc3)o2)cc1	1450	–	–	–
N#Cc1ccc(-c2ccc(C(=O)N(Cc3ccccc3-c3ccccc3F)c3ccc(N4CCNCC4)cc3)o2)cc1	12	–	–	–
N#Cc1ccc(-c2ccc(C(=O)N(Cc3ccc(-c4ccncc4)cc3)c3ccc(N4CCNCC4)cc3)o2)cc1	128	–	–	–
N#Cc1ccc(-c2ccc(C(=O)N(Cc3cccc(-c4ccncc4)c3)c3ccc(N4CCNCC4)cc3)o2)cc1	110	–	–	–
N#Cc1ccc(-c2ccc(C(=O)N(Cc3ccccc3-c3ccncc3)c3ccc(N4CCNCC4)cc3)o2)cc1	12	8400	–	–
Cc1ccccc1-c1ccccc1CN(C(=O)c1ccc(-c2ccc(C#N)cc2)o1)c1ccc(N2CCNCC2)cc1	285	–	–	–

SMILES	IC50 ([1]; read-out: IC50) [nM]	EC50 [2] [nM]	EC50 [3] [nM]	IC50 [1]
Cc1noc(C)c1-c1ccccc1CN(C(=O)c1ccc(-c2ccc(C#N)cc2)o1)c1ccc(N2CCNCC2)cc1	21	1770	–	–
N#Cc1ccc(-c2ccc(C(=O)N(Cc3ccccc3-c3ccc(C#N)cc3)c3ccc(N4CCNCC4)cc3)o2)cc1	8	2950	–	–
N#Cc1ccc(-c2ccc(C(=O)N(Cc3ccccc3-c3cccc(C#N)c3)c3ccc(N4CCNCC4)cc3)o2)cc1	19	1590	–	–
COc1cccc(-c2ccccc2CN(C(=O)c2ccc(-c3ccc(C#N)cc3)o2)c2ccc(N3CCNCC3)cc2)c1	12	–	–	–
N#Cc1ccc(-c2ccc(C(=O)N(Cc3ccccc3-c3cccnc3)c3ccc(N4CCNCC4)cc3)o2)cc1	9	1240	–	–
N#Cc1ccc(-c2ccc(C(=O)N(Cc3ccccc3-c3ccccn3)c3ccc(N4CCNCC4)cc3)o2)cc1	14	2540	–	–
N#Cc1ccc(-c2ccc(C(=O)N(Cc3ccccc3-c3cncnc3)c3ccc(N4CCNCC4)cc3)o2)cc1	27	880	–	–
COc1cncc(-c2ccccc2CN(C(=O)c2ccc(-c3ccc(C#N)cc3)o2)c2ccc(N3CCNCC3)cc2)c1	20	1800	–	–
COc1ccncc1-c1ccccc1CN(C(=O)c1ccc(-c2ccc(C#N)cc2)o1)c1ccc(N2CCNCC2)cc1	8	310	–	–
COc1ccc(-c2ccccc2CN(C(=O)c2ccc(-c3ccc(C#N)cc3)o2)c2ccc(N3CCNCC3)cc2)cn1	43	–	–	–
COc1cc(-c2ccccc2CN(C(=O)c2ccc(-c3ccc(C#N)cc3)o2)c2ccc(N3CCNCC3)cc2)ccn1	24	–	–	–
COc1ncc(-c2ccccc2CN(C(=O)c2ccc(-c3ccc(C#N)cc3)o2)c2ccc(N3CCNCC3)cc2)cn1	52	–	–	–
COc1ccccc1-c1ccccc1CN(C(=O)c1ccc(-c2ccc(C#N)cc2)o1)c1ccc(N2CCNCC2)cc1	20	1960	–	–
COc1ccccc1-c1ncccc1CN(C(=O)c1ccc(-c2ccc(C#N)cc2)o1)c1ccc(N2CCNCC2)cc1	12	734	–	–
COc1ccncc1-c1ncccc1CN(C(=O)c1ccc(-c2ccc(C#N)cc2)o1)c1ccc(N2CCNCC2)cc1	9	1590	–	–
N#Cc1ccc(-c2ccc(C(=O)N(Cc3cccnc3-c3cncnc3)c3ccc(N4CCNCC4)cc3)o2)cc1	100	–	–	–
N#Cc1ccc(-c2ccc(C(=O)N(Cc3ccccc3-c3ccccc3)c3ccc(N4CCNCC4)cc3)o2)cn1	258	–	–	–
N#Cc1ccc(-c2ccc(C(=O)N(Cc3ccccc3-c3cccnc3)c3ccc(N4CCNCC4)cc3)o2)cn1	177	–	–	–
